Test results from paper PMC12067741, “Inhibition of SOD1 trimerization is a novel drug target for ALS disease” (Translational Neurodegeneration, 2025).
Entries after “also recorded” stand apart in the source; their conditions may differ.

Key:
[1] = Metabolic stability in liver microsomes; assay type: in vitro ADME; conditions: beagle dog liver microsomes
SOD1-G147P = biological target: T1, SOD1-G147P (Homo sapiens, UniProt P00441, G148P); experiment: SOD1 oligomerization induced by trimer stabilizer overexpression; assay type: cell-based
T1 construct: expressed in transfected cells
T1 sequence (P00441 whole entry G148P): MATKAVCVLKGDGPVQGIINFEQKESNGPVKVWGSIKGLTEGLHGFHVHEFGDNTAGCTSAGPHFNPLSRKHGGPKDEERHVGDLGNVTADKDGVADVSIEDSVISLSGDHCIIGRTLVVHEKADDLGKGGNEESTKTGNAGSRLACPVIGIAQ
Experimental: For SDS-PAGE, proteins were extracted from cells with the RIPA buffer (50 mmol/L Tris–Cl, pH 7.5, 150 mmol/L NaCl, 1% NP-40, 0.1% SDS and […]). To detect the oligomer status, the cells were harvested with the TNNI buffer (50 mmol/L Tris–Cl, pH 7.5, 150 mmol/L NaCl, 0.3% NP-40, 100 mmol/L iodoacetamide, protease inhibitor cocktails) and reacted with 0.04% glutaraldehyde (Glu) for 30 min, and then SDS-PAGE was performed using the pan-SOD1 antibody. Samples were separated via SDS-PAGE and transferred to PVDF membrane. Blotted membranes were blocked by 3% skim milk containing TBST buffer for 1 h and incubated with specific antibodies. The following primary antibodies were used: pan-SOD1 (GTX100554) from Genetex (Irvine, CA); misfolded SOD1-specific antibody (B8H10) from MediMabs (Montreal, Canada); Actin (sc-1616), GST (sc-138), and GFP (Green fluorescent protein; sc-8036) antibodies from Santa Cruz Biotechnology (Santa Cruz, CA); TDP-43 antibody (10782–2-AP) from Proteintech (Rosemont, IL); anti-FLAG (Sigma; F3165) from Sigma-Aldrich (St. Louis, MO). HRP-conjugated goat anti-mouse, goat anti-rabbit and mouse anti-goat antibodies (Pierce, Thermo Fisher Scientific, Inc., Rockford, IL) were used as secondary antibodies. The blots were detected using an ECL assay (Advansta) and images were acquired using the […] ImageQuant 800 (Cytiva) system and an X-Ray film detector. […]

[2] = Metabolic stability in liver microsomes; assay type: in vitro ADME; conditions: SD rat liver microsomes
Plasma stability = assay type: in vitro ADME; conditions: human plasma, after 120 min of incubation
human normal fibroblast = experiment: Cell viability (MTT); assay type: cell-based; conditions: 48 hr
Experimental: (§1) Cells were incubated with 0.5 mg/mL of MTT solution (475989; Merck, Darmstadt, Germany) for 4 h at 37 °C. After removing excess solution and washing with PBS, the precipitated materials were dissolved in 200 μL DMSO and quantified by measuring absorbance at 540 nm.
(§2) Fig. S1. Optimized inhibitor reduces SOD1 aggregation. a, Mutant SOD1s induced WT-SOD1 aggregation. Testing the selected chemicals to check the inhibitory effect on SOD1 aggregation .HEK293 cells were transfected with MT-SOD1 vectors (A4V, G 93 A) and treated with selected chemicals ([…]). After incubation, transfected cells were harvested with TNNI buffer and fixed with 0.04% glutaraldehyde (Glu) for 30min. Samples were separated using SDS-PAGE. b-c, PRG-A-04 inhibited SOD1 inclusions in SK-N-SH cells. […] After incubation, cells were fixed with 4 % PFA and observed under the fluorescence microscope. (c) Cells with SOD1 inclusions (white arrows; strong intensity of SOD1) were counted by photomicrographs and the percentages were shown with standard deviation (SD). For cell counting, ten fluorescence images were randomly selected. […]
(§3) show cytotoxicity. To know the toxic effect of PRG-A-04 , human normal fibroblast (f) and neuron cells (g) were incubated with PRG -A-04 for 48 hr dose dependently and measured the viability through MTT assay .“Con” means Dimethyl sulfoxide (DMSO) -treated control . […]

SK-N-SH cells = experiment: Cell viability (MTT); assay type: cell-based; conditions: neuron cell line, 48 hr
Experimental: as §1, §2, §3

COc1cc(C=CCOC2Cc3cc4ccc(=O)oc4cc3OC2(C)C)ccc1[N+](=O)[O-] (stereo not drawn) [PRG-A-04]
extent of metabolism in liver microsomes [1]: moderately metabolized; also recorded: metabolized significantly
effect on SOD1 oligomerization caused by trimer-stabilizing mutant (SOD1-G147P): reduced the SOD1 oligomerization
extent of metabolism in liver microsomes [2]: highly metabolized
stability in plasma (Plasma stability): stable
cytotoxicity (human normal fibroblast): without severe cytotoxicity
cytotoxicity (SK-N-SH cells): without severe cytotoxicity
